The target in this assay is Human TASK-1 channels (Homo sapiens (Human), UniProt O14649). Description: Determination of the activity on the TASK-1 channel in Xenopus oocytes (two-microelectrode voltage clamp). It counts as cell-based. Conditions: human TASK-1 expressed in Xenopus oocytes, room temperature; read-out: IC50 value for TASK-1 inhibition. In short, it runs like this: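 Xenopus oocytes were injected with human TASK-1 cRNA and recorded two days later by two-microelectrode voltage clamp, holding at −90 mV with 500 ms steps to 40 mV. Superfusion used ND96, pH 7.4, at room temperature, with rising compound concentrations; percentage inhibition of control current was fitted to a dose-response curve for IC50.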
Chain of Human TASK-1 channels (O14649 whole entry, the tested form may be a part): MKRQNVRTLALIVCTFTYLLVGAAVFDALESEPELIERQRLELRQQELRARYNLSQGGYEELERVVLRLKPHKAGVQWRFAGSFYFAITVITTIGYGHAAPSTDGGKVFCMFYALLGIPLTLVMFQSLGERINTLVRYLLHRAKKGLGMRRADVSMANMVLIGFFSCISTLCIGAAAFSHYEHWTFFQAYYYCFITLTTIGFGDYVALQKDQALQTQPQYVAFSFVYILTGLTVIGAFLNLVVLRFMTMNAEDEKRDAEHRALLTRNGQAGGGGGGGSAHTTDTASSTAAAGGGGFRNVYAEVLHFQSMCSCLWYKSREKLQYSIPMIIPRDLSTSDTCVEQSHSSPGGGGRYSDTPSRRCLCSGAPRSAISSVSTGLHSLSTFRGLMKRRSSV

The IC50 is the midpoint of a concentration-inhibition curve. For the molecule `CC[C@@H](NC(=O)c1cc(C(=O)N[C@H](CC)c2cccnc2OC)n2c1COCC2)c1ccccc1` [16ig, 3,4-Dihydro-1H-pyrrolo[2,1-c][1,4]oxazine-6,8-dicarboxylic acid 6-{[(R)-1-(2-methoxy-pyridin-3-yl)-propyl]-amide} 8-[((R)-1-phenyl-propyl)-amide]], the IC50 was 240 nM.
The figure for `CC[C@@H](NC(=O)c1cc(C(=O)N2Cc3ccccc3C2)n2c1COCC2)c1ccccc1` [16ih, 6-(1,3-Dihydro-isoindole-2-carbonyl)-3,4-dihydro-1H-pyrrolo[2,1-c][1,4]oxazine-8-carboxylic acid ((R)-1-phenyl-propyl)-amide] is 200 nM; for `CC[C@@H](NC(=O)c1cc(C(=O)NCc2ncn[nH]2)n2c1COCC2)c1ccccc1` [16ii, 3,4-Dihydro-1H-pyrrolo[2,1-c][1,4]oxazine-6,8-dicarboxylic acid 8-[((R)-1-phenyl-propyl)-amide] 6-[(2H-[1,2,4]triazol-3-ylmethyl)-amide]] it is 650 nM; for `CCC(NC(=O)c1cc(C(=O)N[C@H](CC)c2ccccc2)c2n1CCOC2)c1nccs1` (stereo partly drawn) [16ij, 3,4-Dihydro-1H-pyrrolo[2,1-c][1,4]oxazine-6,8-dicarboxylic acid 8-[((R)-1-phenyl-propyl)-amide] 6-[(1-thiazol-2-yl-propyl)-amide]] it is 170 nM.
The figure for `CC[C@@H](NC(=O)c1cc(C(=O)N[C@H](c2ccc(F)cc2)C2CC2)n2c1COCC2)c1ccccc1` [16ik, 3,4-Dihydro-1H-pyrrolo[2,1-c][1,4]oxazine-6,8-dicarboxylic acid 6-{[(S)-cyclopropyl-(4-fluoro-phenyl)-methyl]-amide} 8-[((R)-1-phenyl-propyl)-amide]] is 710 nM; for `CC[C@@H](NC(=O)c1cc(C(=O)NCc2nccs2)n2c1COCC2)c1ccccc1` [16il, 3,4-Dihydro-1H-pyrrolo[2,1-c][1,4]oxazine-6,8-dicarboxylic acid 8-[((R)-1-phenyl-propyl)-amide] 6-[(thiazol-2-ylmethyl)-amide]] it is 170 nM.
To `CC[C@@H](NC(=O)c1cc(C(=O)NC2CCCc3nccnc32)n2c1COCC2)c1ccccc1` (stereo partly drawn) [16io, 3,4-Dihydro-1H-pyrrolo[2,1-c][1,4]oxazine-6,8-dicarboxylic acid 8-[((R)-1-phenyl-propyl)-amide] 6-[(5,6,7,8-tetrahydro-quinoxalin-5-yl)-amide]] belongs 940 nM; to `CC[C@@H](NC(=O)c1cc(C(=O)NC(C)c2cccc(S(N)(=O)=O)c2)n2c1COCC2)c1ccccc1` (stereo partly drawn) [16ip, 3,4-dihydro-1H-pyrrolo[2,1-c][1,4]oxazine-6,8-dicarboxylic acid 8-[((R)-1-phenyl-propyl)-amide] 6-{[1-(3-sulfamoyl-phenyl)ethyl]-amide}], 1800 nM; to `CC[C@@H](NC(=O)c1cc(C(=O)NCc2cccc(C(=O)OC)c2)n2c1COCC2)c1ccccc1` [16iq, 3-({[8-((R)-1-Phenyl-propylcarbamoyl)-3,4-dihydro-1H-pyrrolo[2,1-c][1,4]oxazine-6-carbonyl]-amino}-methyl)-benzoic acid methyl ester], 330 nM.
As to `CC[C@@H](NC(=O)c1cc(C(=O)NCc2ccc(C(=O)OC)cc2)n2c1COCC2)c1ccccc1` [16ir, 4-({[8-((R)-1-Phenyl-propylcarbamoyl)-3,4-dihydro-1H-pyrrolo[2,1-c][1,4]oxazine-6-carbonyl]-amino}-methyl)-benzoic acid methyl ester], the IC50 is 350 nM.
The figure for `CC[C@@H](NC(=O)c1cc(C(=O)NCc2ccc(CC(=O)OC)cc2)n2c1COCC2)c1ccccc1` [16is, [4-({[8-((R)-1-Phenyl-propylcarbamoyl)-3,4-dihydro-1H-pyrrolo[2,1-c][1,4]oxazine-6-carbonyl]-amino}-methyl)-phenyl]-acetic acid methyl ester] is 1700 nM.
To `CC[C@@H](NC(=O)c1cc(C(=O)N[C@@H](C)C(=O)OC(C)C)n2c1COCC2)c1ccccc1` [16it, (S)-2-{[8-((R)-1-Phenyl-propylcarbamoyl)-3,4-dihydro-1H-pyrrolo[2,1-c][1,4]oxazine-6-carbonyl]-amino}-propionic acid isopropyl ester] belongs 130 nM; to `CC[C@@H](NC(=O)c1cc(C(=O)N(C)CC(=O)OC(C)C)n2c1COCC2)c1ccccc1` [16iu, {Methyl-[8-((R)-1-phenyl-propylcarbamoyl)-3,4-dihydro-1H-pyrrolo[2,1-c][1,4]oxazine-6-carbonyl]-amino}-acetic acid isopropyl ester], 120 nM; to `CC[C@@H](NC(=O)c1cc(C(=O)NC(C)c2cnc(OC)cn2)n2c1COCC2)c1ccccc1` (stereo partly drawn) [16iv, 3,4-Dihydro-1H-pyrrolo[2,1-c][1,4]oxazine-6,8-dicarboxylic acid 6-{[1-(5-methoxy-pyrazin-2-yl)-ethyl]-amide} 8-[((R)-1-phenyl-propyl)-amide]], 120 nM.
Regarding `CC[C@@H](NC(=O)c1cc(C(=O)NCC(=O)OC(C)C)n2c1COCC2)c1ccccc1` [16iw, {[8-((R)-1-Phenyl-propylcarbamoyl)-3,4-dihydro-1H-pyrrolo[2,1-c][1,4]oxazine-6-carbonyl]-amino}-acetic acid isopropyl ester], the IC50 was found to be 620 nM.
The figure for `CC[C@@H](NC(=O)c1cc(C(=O)N[C@H](CC)c2cccc(O)c2)n2c1COCC2)c1ccccc1` [16ix, 3,4-Dihydro-1H-pyrrolo[2,1-c][1,4]oxazine-6,8-dicarboxylic acid 6-{[(R)-1-(3-hydroxy-phenyl)-propyl]-amide} 8-[((R)-1-phenyl-propyl)-amide]] is 360 nM; for `CCOC(=O)CN(C)C(=O)c1cc(C(=O)N[C@H](CC)c2ccccc2)c2n1CCOC2` [16iy, {Methyl-[8-((R)-1-phenyl-propylcarbamoyl)-3,4-dihydro-1H-pyrrolo[2,1-c][1,4]oxazine-6-carbonyl]-amino}-acetic acid ethyl ester] it is 270 nM; for `CC[C@@H](NC(=O)c1cc(C(=O)N[C@H](CO)C(C)C)n2c1COCC2)c1ccccc1` [16iz, 3,4-Dihydro-1H-pyrrolo[2,1-c][1,4]oxazine-6,8-dicarboxylic acid 6-[((S)-1-hydroxymethyl-2-methyl-propyl)-amide] 8-[((R)-1-phenyl-propyl)-amide]] it is 1900 nM.
To `CC[C@@H](NC(=O)c1cc(C(=O)N[C@H](CC)c2ccc(OC)nc2)n2c1COCC2)c1ccccc1` [16j, 3,4-Dihydro-1H-pyrrolo[2,1-c][1,4]oxazine-6,8-dicarboxylic acid 6-{[(R)-1-(6-methoxy-pyridin-3-yl)-propyl]-amide} 8-[((R)-1-phenyl-propyl)-amide]] belongs 200 nM.
As to `CC[C@@H](NC(=O)c1cc(C(=O)N(C)[C@@H](C)C(=O)OC(C)C)n2c1COCC2)c1ccccc1` [16ja, (S)-2-{Methyl-[8-((R)-1-phenyl-propylcarbamoyl)-3,4-dihydro-1H-pyrrolo[2,1-c][1,4]oxazine-6-carbonyl]-amino}-propionic acid isopropyl ester], the IC50 turned out to be 100 nM.
As for `CC[C@@H](NC(=O)c1cc(C(=O)N(C)Cc2ncccn2)n2c1COCC2)c1ccccc1` [16jc, 3,4-Dihydro-1H-pyrrolo[2,1-c][1,4]oxazine-6,8-dicarboxylic acid 6-(methyl-pyrimidin-2-ylmethyl-amide) 8-[((R)-1-phenyl-propyl)-amide]], the IC50 worked out at 2700 nM.

The values are drawn from patent US9284333B2, “Fused pyrroledicarboxamides and their use as pharmaceuticals” (SANOFI, priority 2012, dated 2016).
